“Also recorded” adds a separate entry of the source.
Key:
[1] = 143 mg/kg 5-HMF, animal studies; cited from earlier work
[2] = test system: HbO2 affinity; details: human subjects exposed to hypoxia, sickle cell anemia patients; cited from earlier work
[3] = target: T1, hemoglobin (Hb) (Homo sapiens, UniProt P68871+P69905); experiment: in vitro high-throughput determination of oxygen dissociation curves (ODC) in whole blood samples; type: biochemical; details: for Hill coefficient (HC) / P50 / Hb oxygen binding affinity (Hb-O2 affinity): human whole blood, low, medium and high dosage, 37° C., 40 mmHg PCO2
T1 construct: Venous blood was collected from 20 healthy subjects (ten women, ten men) aged 18 to 40 years; from tissue; host or cells: human venous whole blood (erythrocytes) of healthy volunteers
Description: Venous blood was collected from 20 healthy subjects (ten women, ten men) aged 18 to 40 years. […] Immediately after blood collection, blood gas analysis was performed (ABL800 flex, radiometer) and samples were stored on ice and processed within eight hours.
The recommended maximum daily dose of 5-HMF of Sanopal® (Cyl, Austria) is 720 mg. Assuming its total distribution in the blood volume of a 70 kg person to be approximately 5000 ml (16), the low dose of 5-HMF was defined as 0.14 mg/ml ([…]).
To ensure stable conditions during the ODC measurement, the measurement setup was set up in an environmentally controlled, closed device (EC box). This box is temperature-controlled (37° C.) and contains the experimental setup consisting of a humidifier, a cover for the microplate reader, tubes and valves. A modified 96-well plate was used (a special coating process ensures a thin, yet adherent layer of red blood cells for optimal fluorescence measurement), which enabled a constant gas flow across all wells in a meandering gas flow channel. The measuring plate is integrated into a gas system consisting of gas bags, gas hoses, humidifiers, gas mixers and a peristaltic pump.
The blood samples were placed in the individual wells using a special stamping technique so that a film consisting of a few cell layers could form. Oxygen saturation was measured in each well using dual-wavelength spectroscopy and oxygen partial pressure was measured using the fluorescence lifetime of commercial oxygen sensors at the inlet and outlet ports of the measuring plate. An oxygen ramp of around 20% by volume to 0% by volume was formed, so that a dissociation curve can be measured. The measurements were carried out every minute in a conventional fluorescence plate reader, so that up to 92 samples of whole blood could be analyzed within ˜25 min.
For the ODC experiments, gas mixtures containing 40 mmHg PCO2 were used, and the temperature was kept constant at 37° C.
The statistical analysis was performed using IBM SPSS Statistics 25. The unpaired t-test was used to analyze baseline differences between substance compositions. ANOVA with repeated measures design was used to determine P50 and HC differences between the different dosages and substance compositions.
Post-hoc t-test (Bonferroni-corrected) and ANOVA with repeated measures design were used for each individual substance or a combination of two substances to identify the location and magnitude of changes. Linear regression analysis was used to determine the concentration dependence for each substance. P<0.05 was considered significant. Data are presented as mean±SD.

[4] = test system: hypoxia; details: pigs exposed to hypoxia; cited from earlier work
[5] = test system: severe hypoxia; details: animal model of severe hypoxia; cited from earlier work

T1 sequence (P69905 2-142 limits assumed): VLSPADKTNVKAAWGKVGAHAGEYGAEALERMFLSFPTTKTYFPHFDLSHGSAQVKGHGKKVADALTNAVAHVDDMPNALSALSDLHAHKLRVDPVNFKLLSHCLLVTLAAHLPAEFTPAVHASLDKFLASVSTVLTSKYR
T1 sequence (P68871 2-147 limits assumed): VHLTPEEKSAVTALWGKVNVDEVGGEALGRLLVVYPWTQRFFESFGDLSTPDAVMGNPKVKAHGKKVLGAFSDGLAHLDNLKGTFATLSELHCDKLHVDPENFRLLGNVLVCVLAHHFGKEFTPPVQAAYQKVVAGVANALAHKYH

Row | dose dependence of P50 ([3]; linear regression over low, medium, high dose) | SMILES | adverse effects [1] | HbO2 affinity [2] | Hill coefficient (HC) [3] | P50 / Hb oxygen binding affinity (Hb-O2 affinity) [3] | arterial oxygen saturation (SO2) [4] | hypoxia-associated increase in pulmonary arterial pressure [4] | hemodynamic stability and microvascular oxygenation [5]
1 | – | O=Cc1ccc(CO)o1 [5-HMF, 5-hydroxymethyl-2-furfural] | increase in serum gamma globulin levels and the relative spleen weight | increases in HbO2 affinity were detected | significantly changed | strong dose-dependent increase in Hb-O2 affinity; also recorded: significantly changed P50; also recorded: strong dose-dependent increase in HbO2 affinity; also recorded: significant reduction in the P50 | improved arterial oxygen saturation | attenuation | protect against hemodynamic instability and maintain microvascular oxygenation
2 | lowest effect | O=C(O)CCC(=O)C(=O)O [α-KG, α-ketoglutaric acid] | – | – | altered | altered P50 | – | – | –

— patent US20240350450A1, “COMPOSITION COMPRISING a-KE[…] (a-KG) AND 5-HYDROXYMETHYL-2-FURFURAL (5-HMF) TO IMPROVE HEMOGLOBIN-MEDIATED OXYGEN SUPPLY” (CYL GmbH, priority 2021, published 2024)
